Experiments:
cell surface Grp94 = test: Cell-surface Grp94 of mouse embryonic fibroblasts; assay type: cell-based; details: MEFs 14 days after Etoposide treatment compared to growing MEFs
Protocol: FIGS. 4A-E. Extracellular Grp94 on senescent cells mediate cytotoxicity of innate components in-vitro. (A) Western blot analysis for Grp94/β-Tubulin in Etoposide-treated IMR90 cells 4 days after transfection with siControl or siHSP90B1 (HSP90B1 is a gene coding for Grp94). (B) PrestoBlue viability assay for Etoposide-treated IMR90 4 days after Transfection with siControl or siHSP90B1. (C) Cytotoxicity of NK92 cells in cultures of IMR90 cells treated with siControl or siHSP90B1. NK92 were added for 1 hour at a ratio of 1:3 (D) Crystal Violet staining for IMR90 cells after co-culturing with MM6 monocytes in the presence of GPM1. (E) Quantitative analysis of cell-surface Grp94 of Mouse embryonic fibroblasts (MEFs) 14 days after Etoposide treatment compared to growing MEFs.
The levels of cell surface Grp94 were also examined in mouse embryonic fibroblast cells (MEFs). […] The relatively high correlation between localization of Grp94 in human and mouse cells implies that it may serve as a new marker for senescent cells.

cell-surface Grp94 = biological target: T1, cell-surface Grp94 (Homo sapiens, UniProt P14625); test: Flow cytometry of cell-surface Grp94 on live IMR90 cells; assay type: cell-based; details: 3 days after etoposide treatment
T1 construct: cell-surface Grp94 of live senescent etoposide-treated IMR90 cells after 24 hrs treatment with 10 or 100 μM GPM1; endogenous in cells; host or cells: IMR-90 human fibroblasts (ATCC), made senescent with etoposide
From the text: FIGS. 3A-F. Grp94 translocates to cell-surface of senescent cells. (A) Flow cytometry histogram for the frequency cell-surface Grp94 of live IMR90 cells 0, 3, 7, 14, or 21 days after etoposide treatment. (B) Quantitative analysis of cell-surface Grp94 on live IMR90 cells 0, 3, 7, 14, or 21 days after etoposide treatment. (C) Scheme describing the mechanism of GPM1-mediated blockage of Grp94 translocation to cell-surface. (D) PrestoBlue viability assay for IMR90 growing or senescent Etoposide-treated cells after 24 hrs treatment with 1, 10, or 100 μM GPM1. […] (E) Flow cytometry histogram for the frequency of cell-surface Grp94 of live senescent etoposide-treated IMR90 cells after 24 hrs treatment with 10 or 100 μM GPM1. (F) Quantitative analysis of cell-surface Grp94 on live senescent etoposide-treated IMR90 cells after 24 hrs treatment with 10 or 100 μM GPM1.
IMR-90 cells were gently dissociated from plates using TripLE express reagent (12604-013, Thermo Fisher Scientific), and maintained in cold FACS buffer (PBS containing 1% FCS and 0.1% Sodium Azid) throughout all procedure. […] Cells were analyzed in a SORP-LSRII instrument (BD Biosciences). […] Cells were gated by their size (FSC/SSC), DAPI negative (live cells) and then analyzed for their fluorescence intensity at the wavelength of 647 (cell-surface Grp94 level), using FlowJo v10 software.

T1 sequence (P14625 22-803): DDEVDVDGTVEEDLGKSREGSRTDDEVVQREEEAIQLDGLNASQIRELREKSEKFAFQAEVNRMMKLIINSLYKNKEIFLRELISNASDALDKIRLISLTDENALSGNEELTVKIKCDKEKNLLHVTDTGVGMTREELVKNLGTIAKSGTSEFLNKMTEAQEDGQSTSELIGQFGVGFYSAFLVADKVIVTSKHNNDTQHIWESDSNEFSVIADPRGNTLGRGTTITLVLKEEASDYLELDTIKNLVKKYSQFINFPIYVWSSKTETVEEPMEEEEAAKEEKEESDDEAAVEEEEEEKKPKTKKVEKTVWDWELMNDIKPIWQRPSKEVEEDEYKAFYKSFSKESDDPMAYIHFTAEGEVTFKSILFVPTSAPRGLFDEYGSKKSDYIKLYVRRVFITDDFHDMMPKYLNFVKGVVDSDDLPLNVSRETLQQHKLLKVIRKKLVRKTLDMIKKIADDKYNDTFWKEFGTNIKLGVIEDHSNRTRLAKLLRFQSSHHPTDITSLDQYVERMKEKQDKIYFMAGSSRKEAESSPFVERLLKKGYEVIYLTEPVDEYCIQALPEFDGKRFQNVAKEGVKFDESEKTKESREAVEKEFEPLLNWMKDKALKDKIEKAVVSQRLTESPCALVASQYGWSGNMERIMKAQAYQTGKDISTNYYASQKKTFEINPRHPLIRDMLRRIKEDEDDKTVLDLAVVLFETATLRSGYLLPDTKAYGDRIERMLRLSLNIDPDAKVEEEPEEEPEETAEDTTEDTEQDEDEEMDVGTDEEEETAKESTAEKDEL

- cell-surface Grp94 levels (cell-surface Grp94): not elevated
Structure (SMILES): COc1cc([C@@H]2c3cc4c(cc3[C@@H](O[C@@H]3O[C@@H]5CO[C@@H](C)O[C@H]5[C@H](O)[C@H]3O)[C@H]3COC(=O)[C@H]23)OCO4)cc(OC)c1O [etoposide]
- cell surface Grp94 (cell surface Grp94): significant elevation
